This note sets out measurements from ChEMBL document CHEMBL5338739, “Discovery of Dual Lysine Methyltransferase G9a and EZH2 Inhibitors with In Vivo Efficacy against Malignant Rhabdoid Tumor” (J Med Chem, 2023).

In general, IC50 refers to the concentration that gives 50% inhibition. The term inhibition denotes the drop in the measured response relative to a control, in per cent. As usually defined, the Tmax is the time at which the peak concentration occurs. A word on the CC50: it is the concentration giving 50% cytotoxicity. A word on the Cmax: it is the maximum level reached in the sampled fluid or tissue.

The target of data set [1] is T1, Histone-lysine N-methyltransferase EHMT2 (Homo sapiens, UniProt Q96KQ7).
T1 sequence (Q96KQ7 whole entry): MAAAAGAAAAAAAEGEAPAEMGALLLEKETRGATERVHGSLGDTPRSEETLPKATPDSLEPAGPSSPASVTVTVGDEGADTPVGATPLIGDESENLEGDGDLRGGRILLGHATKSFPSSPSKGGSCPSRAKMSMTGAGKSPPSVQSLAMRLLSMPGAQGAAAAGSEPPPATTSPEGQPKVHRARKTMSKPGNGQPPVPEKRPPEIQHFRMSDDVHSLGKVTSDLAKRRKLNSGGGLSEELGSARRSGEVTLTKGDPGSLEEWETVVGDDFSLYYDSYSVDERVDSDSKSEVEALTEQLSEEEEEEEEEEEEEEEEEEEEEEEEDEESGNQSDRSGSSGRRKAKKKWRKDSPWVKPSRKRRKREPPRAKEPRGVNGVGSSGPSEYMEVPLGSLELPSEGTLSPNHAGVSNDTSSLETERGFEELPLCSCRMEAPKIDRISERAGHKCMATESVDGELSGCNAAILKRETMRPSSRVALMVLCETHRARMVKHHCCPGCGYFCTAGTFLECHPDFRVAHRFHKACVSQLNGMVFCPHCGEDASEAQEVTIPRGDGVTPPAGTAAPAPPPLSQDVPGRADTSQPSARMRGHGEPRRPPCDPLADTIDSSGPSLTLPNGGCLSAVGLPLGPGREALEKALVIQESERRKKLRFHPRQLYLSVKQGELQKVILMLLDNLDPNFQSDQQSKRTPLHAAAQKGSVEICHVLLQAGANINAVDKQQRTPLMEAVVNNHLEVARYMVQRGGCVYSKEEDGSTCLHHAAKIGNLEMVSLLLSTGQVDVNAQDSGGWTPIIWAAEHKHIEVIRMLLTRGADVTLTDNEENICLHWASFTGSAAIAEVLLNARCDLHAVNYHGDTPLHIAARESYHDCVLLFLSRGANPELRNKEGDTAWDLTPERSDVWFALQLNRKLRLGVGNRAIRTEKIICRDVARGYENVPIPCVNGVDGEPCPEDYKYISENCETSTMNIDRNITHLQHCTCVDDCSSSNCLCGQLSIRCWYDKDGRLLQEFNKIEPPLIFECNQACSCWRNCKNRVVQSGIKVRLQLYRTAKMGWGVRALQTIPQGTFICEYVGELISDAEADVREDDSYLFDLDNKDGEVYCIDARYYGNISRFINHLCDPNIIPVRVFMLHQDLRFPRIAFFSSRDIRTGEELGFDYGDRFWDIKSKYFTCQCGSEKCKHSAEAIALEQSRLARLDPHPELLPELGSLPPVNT
As to the kind of experiment: Inhibition of human recombinant EHMT2 G9a using SAM as substrate incubated for 1 hr by microplate luminescence based HMT assay.

Data set [2] can be described thus: Toxicity in BALB/c nude mouse xenografted with human RD cells assessed as body weight fluctuations at 10 to 20 mg/kg, ip administered for 5 consecutive days followed by 2 rest days for 3 weeks. The format is organism-based. The settings on record: in vivo, 504 h, dose 10-20 mg/kg.
Data set [3] can be described thus: Clearance in Sprague-Dawley rat at 10 mg/kg, iv administered for 12 hrs by HPLC analysis. The conditions noted are these: in vivo. The format is ADME, organism-based.
For data set [4], the target named is T2, Histone-lysine N-methyltransferase EZH2 (Homo sapiens, UniProt Q15910). As to the kind of experiment: Binding affinity to EZH2 in human RD cells assessed as decrease in pronase E mediated EZH2 hydrolyzation incubated for 1 hr by DARTS analysis. The format is cell-based. The settings on record: dose 5-20 µM.
Target sequence in this assay (Q15910 whole entry, looked up): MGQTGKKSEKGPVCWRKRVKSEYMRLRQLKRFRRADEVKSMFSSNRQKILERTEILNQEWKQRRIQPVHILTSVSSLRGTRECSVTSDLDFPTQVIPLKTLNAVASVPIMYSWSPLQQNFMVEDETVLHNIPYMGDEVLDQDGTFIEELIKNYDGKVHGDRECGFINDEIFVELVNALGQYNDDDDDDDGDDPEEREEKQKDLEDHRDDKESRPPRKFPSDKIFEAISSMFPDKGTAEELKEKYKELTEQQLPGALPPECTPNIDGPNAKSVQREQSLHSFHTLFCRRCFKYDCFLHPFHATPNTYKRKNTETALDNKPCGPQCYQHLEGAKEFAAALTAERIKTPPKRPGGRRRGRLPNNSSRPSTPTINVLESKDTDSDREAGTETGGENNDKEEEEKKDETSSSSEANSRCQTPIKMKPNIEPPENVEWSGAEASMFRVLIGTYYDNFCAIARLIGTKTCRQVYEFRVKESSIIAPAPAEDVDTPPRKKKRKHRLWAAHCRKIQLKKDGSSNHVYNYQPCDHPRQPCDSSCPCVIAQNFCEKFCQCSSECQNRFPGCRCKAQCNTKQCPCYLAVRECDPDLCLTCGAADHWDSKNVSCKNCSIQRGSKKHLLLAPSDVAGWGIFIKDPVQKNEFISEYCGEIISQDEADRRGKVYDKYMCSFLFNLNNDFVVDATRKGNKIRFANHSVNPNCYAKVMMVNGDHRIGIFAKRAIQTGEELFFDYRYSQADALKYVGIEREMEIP
The target in data set [5] is Histone-lysine N-methyltransferase SETDB1 (Homo sapiens) (UniProt Q15047). As to the kind of experiment: Inhibition of SETDB1 (unknown origin) using SAM as substrate at 10 uM by time-resolved fluorescence assay relative to control.
The target in data set [6] is T2, Histone-lysine N-methyltransferase EZH2. As to the kind of experiment: Inhibition of human EZH2 using SAM as substrate incubated for 1 hr by microplate luminescence based HMT assay.
Target sequence in this assay (Q15910 whole entry): as the sequence (Q15910 whole entry, looked up) above
Data set [7] has as its system Mus musculus. The experiment in a line: Downregulation of H3K9me2 expression in tumor tissue of BALB/c nude mouse xenografted with human RD cells at 20 mg/kg, ip administered for 5 consecutive days followed by 2 rest days for 3 weeks by Western blotting analysis. The format is functional, organism-based. Background: In xenograft studies the graft and the host belong to different species.

Data set [8] can be described thus: Tmax in Sprague-Dawley rat at 30 mg/kg, po administered for 24 hrs by HPLC analysis. The conditions noted are these: in vivo. The format is ADME, organism-based.
Data set [9] has as its target T2, Histone-lysine N-methyltransferase EZH2. The experiment in a line: Inhibition of human EZH2 using SAM as substrate at 10 uM by time-resolved fluorescence assay relative to control.
Target sequence in this assay (Q15910 whole entry, looked up): as above
Data set [10] in a line: Cytotoxicity against human MCF-10A cells assessed as reduction in cell viability incubated for 72 hrs by MTT assay. The format is toxicity, cell-based. For orientation: Tetrazolium assays rely on reduction of a dye to a coloured formazan, in cell work by metabolically active cells.
Data set [11] concerns the target Histone-lysine N-methyltransferase SETD2 (Homo sapiens) (UniProt Q9BYW2). As to the kind of experiment: Inhibition of SETD2 (unknown origin) using SAM as substrate at 10 uM by time-resolved fluorescence assay relative to control.
Data set [12] has as its target T3, Histone-lysine N-methyltransferase EZH1 (Homo sapiens) (UniProt Q92800).
T3 sequence (whole entry): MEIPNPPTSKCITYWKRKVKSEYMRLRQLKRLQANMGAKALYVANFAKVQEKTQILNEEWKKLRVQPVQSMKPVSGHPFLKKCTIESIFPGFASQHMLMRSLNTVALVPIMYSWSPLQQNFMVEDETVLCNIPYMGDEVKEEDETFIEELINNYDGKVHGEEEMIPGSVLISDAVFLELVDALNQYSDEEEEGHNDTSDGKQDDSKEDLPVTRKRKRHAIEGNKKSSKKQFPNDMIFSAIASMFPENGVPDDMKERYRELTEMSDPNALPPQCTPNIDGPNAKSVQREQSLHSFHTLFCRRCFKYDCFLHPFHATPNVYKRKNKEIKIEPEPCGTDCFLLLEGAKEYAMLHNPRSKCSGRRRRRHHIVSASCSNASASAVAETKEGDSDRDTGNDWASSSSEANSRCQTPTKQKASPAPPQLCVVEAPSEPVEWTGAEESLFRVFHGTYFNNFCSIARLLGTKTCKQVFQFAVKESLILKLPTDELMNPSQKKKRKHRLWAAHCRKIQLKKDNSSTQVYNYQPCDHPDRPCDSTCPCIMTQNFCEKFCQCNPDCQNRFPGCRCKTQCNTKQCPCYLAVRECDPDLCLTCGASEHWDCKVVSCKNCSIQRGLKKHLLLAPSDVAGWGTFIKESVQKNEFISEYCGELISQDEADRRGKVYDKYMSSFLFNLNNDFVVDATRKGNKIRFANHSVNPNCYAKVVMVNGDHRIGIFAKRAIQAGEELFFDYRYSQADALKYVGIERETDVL
As to the kind of experiment: Inhibition of human EZH1 using SAM as substrate at 10 uM by time-resolved fluorescence assay relative to control.

A short description of data set [13]: Cmax in Sprague-Dawley rat at 30 mg/kg, po administered for 24 hrs by HPLC analysis. The conditions noted are these: in vivo. The format is ADME, organism-based. On the set-up: time 24 hrs, dose 30 mg/kg, route po.
For data set [14], the target named is T4, Histone-lysine N-methyltransferase EHMT2 (Homo sapiens) (UniProt Q96KQ7).
T4 sequence (whole entry): T1 sequence (Q96KQ7 whole entry)
As to the kind of experiment: Binding affinity to recombinant EHMT2 G9a in human RD cells assessed as increase in protein thermal stability at 5 uM incubated for 4 hrs by CETSA based Western blot analysis. The format is cell-based. In general terms: A western blot detects proteins with antibodies after separation by electrophoresis.

The structures appear in SMILES notation. Activity calls are given as the source filed them. The rule behind the calls is not given here.

Chain of Histone-lysine N-methyltransferase SETD2 (Homo sapiens) (Q9BYW2 whole entry): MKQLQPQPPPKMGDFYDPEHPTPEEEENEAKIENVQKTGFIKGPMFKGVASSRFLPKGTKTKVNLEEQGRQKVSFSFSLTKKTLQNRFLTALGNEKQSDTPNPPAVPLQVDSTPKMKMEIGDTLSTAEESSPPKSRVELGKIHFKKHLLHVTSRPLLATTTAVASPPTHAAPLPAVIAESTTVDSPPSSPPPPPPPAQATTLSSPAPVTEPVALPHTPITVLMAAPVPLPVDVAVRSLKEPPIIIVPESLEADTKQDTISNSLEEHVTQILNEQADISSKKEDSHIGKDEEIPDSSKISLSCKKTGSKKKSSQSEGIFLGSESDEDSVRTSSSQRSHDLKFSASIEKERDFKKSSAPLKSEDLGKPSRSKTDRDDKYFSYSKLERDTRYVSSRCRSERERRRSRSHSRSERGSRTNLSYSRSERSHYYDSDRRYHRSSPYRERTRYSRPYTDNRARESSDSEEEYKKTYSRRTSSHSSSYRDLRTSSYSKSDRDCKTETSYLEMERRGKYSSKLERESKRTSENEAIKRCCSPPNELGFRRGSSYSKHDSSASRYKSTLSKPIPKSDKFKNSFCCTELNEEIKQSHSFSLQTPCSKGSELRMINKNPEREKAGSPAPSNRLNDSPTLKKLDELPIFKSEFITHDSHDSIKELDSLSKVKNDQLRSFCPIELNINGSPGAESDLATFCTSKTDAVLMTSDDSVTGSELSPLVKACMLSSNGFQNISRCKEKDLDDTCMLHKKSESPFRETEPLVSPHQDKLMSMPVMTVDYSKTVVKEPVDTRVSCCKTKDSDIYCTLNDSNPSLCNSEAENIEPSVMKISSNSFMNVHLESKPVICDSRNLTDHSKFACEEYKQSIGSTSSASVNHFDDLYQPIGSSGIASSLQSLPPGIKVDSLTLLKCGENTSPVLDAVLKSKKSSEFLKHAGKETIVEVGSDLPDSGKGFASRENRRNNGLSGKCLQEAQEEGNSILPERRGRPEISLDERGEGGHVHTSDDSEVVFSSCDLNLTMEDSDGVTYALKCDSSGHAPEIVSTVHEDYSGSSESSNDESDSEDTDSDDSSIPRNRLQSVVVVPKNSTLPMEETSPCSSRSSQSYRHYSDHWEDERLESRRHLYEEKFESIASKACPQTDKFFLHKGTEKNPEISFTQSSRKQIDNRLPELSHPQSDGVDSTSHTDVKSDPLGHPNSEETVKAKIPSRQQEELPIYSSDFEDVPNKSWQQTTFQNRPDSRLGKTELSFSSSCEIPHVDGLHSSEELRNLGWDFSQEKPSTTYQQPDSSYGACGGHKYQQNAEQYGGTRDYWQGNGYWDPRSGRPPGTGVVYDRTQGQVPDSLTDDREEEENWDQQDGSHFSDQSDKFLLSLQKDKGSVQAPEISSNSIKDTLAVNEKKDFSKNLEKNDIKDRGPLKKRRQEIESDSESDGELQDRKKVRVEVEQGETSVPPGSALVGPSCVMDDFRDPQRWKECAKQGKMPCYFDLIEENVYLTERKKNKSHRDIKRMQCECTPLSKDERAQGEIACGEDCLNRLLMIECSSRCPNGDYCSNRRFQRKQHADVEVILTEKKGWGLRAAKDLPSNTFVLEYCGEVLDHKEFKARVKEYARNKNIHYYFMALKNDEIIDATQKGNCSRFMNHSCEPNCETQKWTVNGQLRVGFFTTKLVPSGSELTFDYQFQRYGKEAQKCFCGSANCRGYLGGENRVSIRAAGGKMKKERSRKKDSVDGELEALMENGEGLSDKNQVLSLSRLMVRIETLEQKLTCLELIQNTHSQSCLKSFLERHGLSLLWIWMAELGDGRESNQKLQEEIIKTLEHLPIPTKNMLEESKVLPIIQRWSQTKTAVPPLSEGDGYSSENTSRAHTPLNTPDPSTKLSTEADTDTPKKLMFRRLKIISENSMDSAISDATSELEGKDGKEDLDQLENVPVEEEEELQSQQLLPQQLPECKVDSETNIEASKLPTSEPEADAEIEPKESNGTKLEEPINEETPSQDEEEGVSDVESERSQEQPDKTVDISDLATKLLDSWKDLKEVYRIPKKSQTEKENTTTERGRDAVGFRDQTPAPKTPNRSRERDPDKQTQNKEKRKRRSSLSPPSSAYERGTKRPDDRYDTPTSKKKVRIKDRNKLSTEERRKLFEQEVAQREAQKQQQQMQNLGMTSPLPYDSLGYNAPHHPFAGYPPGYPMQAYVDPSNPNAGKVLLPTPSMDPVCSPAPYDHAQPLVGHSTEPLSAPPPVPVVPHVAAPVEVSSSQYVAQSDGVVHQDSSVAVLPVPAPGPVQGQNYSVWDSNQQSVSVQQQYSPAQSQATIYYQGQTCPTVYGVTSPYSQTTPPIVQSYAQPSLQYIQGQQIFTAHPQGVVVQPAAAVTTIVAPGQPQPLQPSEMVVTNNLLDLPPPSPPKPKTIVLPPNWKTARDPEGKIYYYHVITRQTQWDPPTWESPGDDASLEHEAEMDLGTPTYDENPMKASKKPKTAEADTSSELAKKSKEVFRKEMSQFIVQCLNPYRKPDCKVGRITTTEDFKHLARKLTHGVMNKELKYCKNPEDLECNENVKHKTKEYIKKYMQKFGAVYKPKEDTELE

With `COc1cc2c(NCc3c(C)cc(C)[nH]c3=O)nc(N3CCC(F)(F)CC3)nc2cc1OCCCN1CCCC1`, the IC50 came out at 2.9 nM in [1] and 4.35 nM in data set [6]. Moreover, the Activity result in data set [2] is “Non-Toxic”; in data set [4] it was “Dose-Dependent Effect”. Besides, the CL in [3] was 15.14 mL/min/kg. For the same compound, the inhibition in data set [5] was 7.79%; in [9], 98.3%; in [11], -5.18%; in data set [12], 89.2%. Further, the result in data set [7] and in data set [14] was Active. In addition, the time to peak (Tmax) in [8] was 41.4 min. Moreover, the CC50 at 72 h in data set [10] is greater than 100000 nM. The compound further gave a Cmax in data set [13] of 3180 ng/mL.
